Results on two compounds are retold here after patent US20130338115A1, “USE OF MITOCHONDRIALLY-ADDRESSED COMPOUNDS FOR PREVENTING AND TREATING CARDIOVASCULAR DISEASES” (Mitotech SA, priority 2007, published 2013).

SMILES strings stand for the structures.

For data set [1], the system named is isolated hearts of Wistar rats. The experiment in a line: H2O2-induced development of arrhythmias in isolated rat hearts after 3 weeks oral SkQ1. Format: in vivo. The settings on record: for normal rhythm maintained, % of the experiments: hydrogen peroxide 100 μm into coronary bed. As for the experimental part:
Wistar rats received preparation SkQ1 daily for 3 weeks at doses of 2.0, 0.2 and 0.02 nmol/kg body weight by its addition to the curd. In the control group of animals, the feed was supplemented with sodium bromate in a similar dose. Experiments on isolated hearts were performed 1-2 days after the end of administration of the preparations by a standard technique under conditions of retrograde perfusion of the heart with a controlled rate of perfusion and a measurement of spontaneous heart rate. The effect of SkQ1 on the incidence of arrhythmias induced by injection of hydrogen peroxide (100 μm) into the coronary bed of hearts was studied. This model reproduces some features of a situation of oxidative stress that develops during reperfusion of ischemic heart.

Data set [2] relates to Wistar male rats. The experiment in a line: Regional myocardial ischemia and reperfusion in anesthetized rats. The data set is classed as in vivo, rat. Here is the method:
To study a possibility of reduction of the irreversible damage of cardiomyocytes by SkQ1 in vivo a model of regional myocardial ischemia and reperfusion in anesthetized rats was used. Experiments were performed on Wistar male rats weighing 300-450 grams, fed a standard diet. In the control animals during three weeks received NaBr dissolved in 0.1 M phosphate buffer (pH 6.0), at a dose of 250 nmol/kg body weight/day. Animals of the experimental group during three weeks together with food received SkQ1 dissolved in 0.1 M phosphate buffer (pH 6.0), at a dose of 250 nmol/kg body weight/day.
In urethane-anesthetized animals ([…] body weight intraperitoneally administered), artificial ventilation of the lungs with room air with added oxygen at a rate of 60-80 beats per minute was carried out. Indicators of the acid-base balance of arterial blood (pH, pO2 and pCO2) during the entire experiment were controlled with the use of acid-base gas analyzer ABL-30 (Radiometer) and maintained at a physiological level.
Catheterization of the carotid artery was performed for recording arterial pressure (Mingograf 804, Siemens-Elema). The chest was opened by longitudinal dissection of the sternum and the heart was freed from the pericardium. To induce regional myocardial ischemia, the left ventricle was pierced with an atraumatic needle 5-0 under the left appendage in the direction perpendicular to long axis of the heart. Tightening the ligature at the anterior descending coronary artery (ADA) located deep in the pierced myocardium ceased blood supply to a portion of the myocardium, weakening of the ligature restored coronary flow.
The dissection is followed by a 30-min period of stabilization of hemodynamic parameters (the initial state). Then anterior descending coronary artery was occluded for 40 min followed by 60 min of reperfusion. At the end of the experiment, to identify the risk zone (RZ) and the intact zone, anterior descending coronary artery was occluded and a 2% Evans solution (2 ml) was injected as a bolus into the jugular vein. Then the heart was cut out and the left ventricle (LV) was separated and frozen at −20° C.
To measure infarct size, the method for histochemical localization of the risk zone (RZ) and myocardial infarction (MI) by tissue staining with 2,3,5-triphenyltetrazolium chloride (TFT) was used (Kitakaze M., Takashima S., Funaya H., Minamino T., Node K., Shinozaki Y., Mori H., Hori M., 1997. Temporary acidosis during reperfusion limits myocardial infarct size. Am. J. Physiol.; 272: H2071-H207). […] The obtained samples were scanned, MI and RZ sizes were determined by the method of computer-assisted planimetry using the Imagecal program. […]

Data set [3] deals with rat heart. The following applies: pre-perfusion of rat heart; Kutala et al. 2006; cited from earlier work.
The mark [4] stands for this setting: SkQ1 250 nmol/kg body weight/day with food for three weeks, initial state.

With `CC1=C(C)C(=O)C(CCCCCCCCCC[P+](c2ccccc2)(c2ccccc2)c2ccccc2)=CC1=O` [SkQ1], the results for the “normal rhythm maintained, % of the experiments” value in data set [1] (SkQ1 0.02 nmol/kg daily for 3 weeks), in data set [1] (SkQ1 0.2 nmol/kg daily for 3 weeks) and in data set [1] (SkQ1 2.0 nmol/kg daily for 3 weeks) were 55%, 70% and 58%, respectively. The “number of hearts with documented normal rhythm” value in data set [1] (SkQ1 0.2 nmol/kg, 23 experiments) worked out at 16 hearts. The “RZ/LV (risk zone/weight of the left ventricle), difference between the groups” value in data set [2] (250 nmol/kg body weight/day, three weeks, 40 min occlusion, 60 min reperfusion) is given as “no differences”. The “MI/RZ ratio (myocardial infarction/risk zone), times less as compared to the control” value in data set [2] (250 nmol/kg body weight/day, three weeks, 40 min occlusion, 60 min reperfusion, P<0.005) came to 1.7 times. The “effect on blood pressure” value in data set [2] (setting [4]) was “No effect”. The “effect on heart rate” value in data set [2] (setting [4]) is “No effect”.

Consider `CC1(C)CC(O)CC(C)(C)N1[O]` [Tempol], for which the “reduction of infarct size caused by subsequent ischemia/reperfusion” value in data set [3] is 1.5 times.
